Measured values taken from patent publication US20260132128A1, “COMPOUND FOR RECOVERING P53 MUTATION FUNCTION AND USE THEREOF” (SHENZHEN ZHONGGE BIOLOGICAL TECHNOLOGY CO., LTD., priority 2022, published 2026).
Marks after values point to notes of the source that are not given here.

Assays:
p53 Y220C [1] = target: T1, p53 Y220C (Homo sapiens, UniProt P04637, P309S/R273H/Y220C); assay: DNA binding test (HTRF): binding of P53Y220C protein to DNA; format: biochemical; details: HTRF, activation of p53 Y220C (aa 94-312) binding to biotin DNA
T1 construct: a truncated mutant containing only amino acids 94-312 of p53; made in house; host or cells: E. coli

p53 Y220C [2] = target: T2, p53 Y220C (Homo sapiens, UniProt P04637, Y220C); assay: as above; format: biochemical; details: multiple ratio of EC50 of the compound to the reference compound, DNA binding test
T2 construct: a truncated mutant containing only amino acids 94-312 of p53; made in house; host or cells: E. coli

NUGC-3 cells = assay: NUGC-3 cell proliferation assay (CTG); format: cell-based, human; details: for GI50: Homo sapiens, NUGC-3, 144 h, 6 days, CTG; for Compound GI50 (nM)/Reference compound GI50 (nM): multiple ratio of GI50 of the compound to the reference compound
Procedure, shortened: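 NUGC-3 cells (250/well), plated overnight, were exposed 6 days at 37° C to compound, 10 doses of 1:3 dilutions from 10 μM top final. Viability by CellTiter-Glo luminescence; inhibition relative to 0.1% DMSO and blank, GI50 from variable-slope nonlinear fit.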

BxPC-3 cells = assay: BxPC-3 cell proliferation test (CTG); format: cell-based; details: Homo sapiens, 144 h, 6 days
Method: To detect the inhibitory effects of the aforementioned compounds on the proliferation ability of BxPC-3 cells, 125 BxPC-3 cells (ATCC®CRL-1687) were seeded into a 384-well plate (Corning 3765), 35 μL per well, and placed in a constant temperature incubator at 37° C. and 5% CO2 overnight. Then, 40 nL of the compound was added to the 384-well plate using an Echo 655 Liquid Handler, with a maximum final concentration of 10 μM, 1:3 serial dilution, and in a total of 10 doses. Incubation was performed at 37° C., 5% CO2 for 6 days. The plate was taken out from the incubator and equilibrated at room temperature for 10 minutes. 20 μL of CTG (Promage G7572) was added to each well of the plate according to the platemap. The plate was centrifuged at 1000 rpm for 1 minute. The lysis of cells was induced by mixing on a shaker for 2 minutes. The plate was centrifuged at 1000 rpm for 1 minute. Incubation was performed at room temperature for 10 minutes to stabilize luminescence signals. Luminescence values were recorded by Envision (PerkinElmer 2105-0020). GraphPad 9.0 was used to fit the inhibition rate and compound concentration into a nonlinear regression curve (dose response-variable slope) to calculate GI50, inhibition rate={1−(A−B)/(C−B)}*100%, A=signal value of compound; B=average signal of blank control; C=average signal of negative control (wherein the negative control was 0.1% DMSO).

[3] = Caco-2 cell permeability test; format: in vitro ADME; details: human, pH 7.4, Caco-2, 10 μM; for Papp A→B at 120 min, 10 μM: A to B; for Papp B→A at 120 min, 10 μM: B to A
Method: Caco-2 cells (ATCC, Cat. No. HTB-37) were inoculated to a 96-well plate (Corning HTS Transwell, Cat. No. 3391) at 1.25×10^5/cm2, and the culture medium (DMEM+10% FBS+1% Penicillin-Streptomycin Liquid (100×)+1% NEAA) was replaced every 3 to 4 days. The plate was placed in an incubator at 37° C. with 5% CO2 until a confluent cell monolayer was formed after 21 to 28 days. Before the transport experiment, the culture medium was removed from the cell culture plate, and the plate was washed twice with pre-warmed HBSS buffer (10 mM HEPES, pH 7.4), and 100 μL of HBSS buffer was added to each well. After incubation at 37° C. for 30 minutes, the TEER value was measured using a cell resistance meter (Millicell-ERS2) to confirm the integrity and density of the monolayer cells. The HBSS buffer was discarded, the upper plate containing the cell monolayer membrane was transferred to the corresponding receiving plate, 10 mM test compound stock solution was diluted to a concentration of 10 μM with HBSS transport buffer containing 0.5% BSA, and it was added to the apical side (A side) and basolateral side (B side), respectively. Incubation was carried out for 120 min at 37° C., 5% CO2, and 95% relative humidity, and the permeation of the test compound from A side to B side or from B side to A side and the efflux rate of the compound were determined. The test compound and the reference compound were quantified by LC-MS/MS analysis based on the peak area ratio of analyte/internal standard. The apparent permeability coefficient Papp (cm/s) was calculated using the following formula:
[formula] • wherein, dCr/dt represented the functional relation between cumulative concentration of compound in receptor compartment and time; V represented the volume of solution in receptor compartment (0.1 mL at apical side, and 0.25 mL at basolateral side); A represented the transport surface area, i.e., the monolayer cell area was 0.0804 cm^2; CO represented the initial concentration of compound in donor compartment.
The efflux ratio was calculated using the following formula: […]
The percent recovery was calculated using the following formula:
[formula] [formula] • wherein, Vd represented the volume of donor compartment (0.1 mL on the apical side and 0.25 mL on the basolateral side); C and Cr represented the final concentrations of the transported compound in the donor and receptor compartment, respectively; Cc represented the compound concentration in cell lysate; Vc represented the volume of insert well (which was 0.1 mL in this experiment).

Structure (SMILES) | EC50 (p53 Y220C [1]) [nM] | Compound EC50 (nM)/Reference compound EC50 (nM) (p53 Y220C [2]) | GI50 (NUGC-3 cells) [nM] | Compound GI50 (nM)/Reference compound GI50 (nM) (NUGC-3 cells) | GI50 (BxPC-3 cells) [nM] | efflux ratio at 120 min, 10 μM [3] | Papp A→B at 120 min, 10 μM [3] [×10⁻⁶ cm/s] | Papp B→A at 120 min, 10 μM [3] [×10⁻⁶ cm/s]
COc1cc(S(C)(=O)=O)ccc1NCC#Cc1nc2c(NC3CCN(C)CC3)cccn2c1CC(F)(F)F [Compound 4] | 100 to 500 | A (A: EC50 of the compound≤EC50 of the reference compound) | 1000 to 5000 | B (B: GI50 of the reference compound < GI50 of the compound ≤ 3.0 * GI50 of the reference compound) | < 1000 |  |  | 
COc1cc(C(=O)N(C)C)ccc1NCC#Cc1nc2c(NC3CC[C@@H](N4CC5(COC5)C4)C[C@@H]3F)cccn2c1CC(F)(F)F (some centres unmarked) [Compound 47] |  | B (B: EC50 of the reference compound<EC50 of the compound≤3.0*EC50 of the reference compound) |  | C (C: GI50 of the compound ≥ 3 * GI50 of the reference compound) |  | 1.52 | 3.97 | 6.04
CNC(=O)c1ccc(NCC#Cc2nc3c(NC4CCOCC4)cccn3c2CC(F)(F)F)c(OC)c1 [Compound 8] | 500 to 1000 | C (C: EC50 of the compound≥3*EC50 of the reference compound) | 1000 to 5000 | C (C: GI50 of the compound ≥ 3 * GI50 of the reference compound) | 1000 to 5000 |  |  | 
COc1cc(S(C)(=O)=O)ccc1NCC#Cc1nc2c(N[C@@H]3CCN(C)C[C@@H]3F)cccn2c1CC(F)(F)F [Compound 3] | 100 to 500 | A (A: EC50 of the compound≤EC50 of the reference compound) | < 1000 | B (B: GI50 of the reference compound < GI50 of the compound ≤ 3.0 * GI50 of the reference compound) | < 1000 |  |  | 
CNC(=O)c1ccc(NCC#Cc2nc3c(NC4CCS(=O)(=O)CC4)cccn3c2CC(F)(F)F)c(OC)c1 [Compound 10] | 100 to 500 | C (C: EC50 of the compound≥3*EC50 of the reference compound) | 1000 to 5000 | C (C: GI50 of the compound ≥ 3 * GI50 of the reference compound) | 1000 to 5000 |  |  | 
CNC(=O)c1ccc(NCC#Cc2nc3c(N[C@H]4CC[C@H](N5CC6(COC6)C5)CC4)cccn3c2CC(F)(F)F)c(OC)c1 [Compound 9] | 100 to 500 | B (B: EC50 of the reference compound<EC50 of the compound≤3.0*EC50 of the reference compound) | < 1000 | B (B: GI50 of the reference compound < GI50 of the compound ≤ 3.0 * GI50 of the reference compound) | < 1000 |  |  | 
CNC(=O)c1ccc(NCC#Cc2nc3c(NC4CC[C@@H](N5CC6(COC6)C5)C[C@@H]4F)cccn3c2CC(F)(F)F)c(OC2CC2)c1 (some centres unmarked) [Compound 57] |  | B (B: EC50 of the reference compound<EC50 of the compound≤3.0*EC50 of the reference compound) |  | B (B: GI50 of the reference compound < GI50 of the compound ≤ 3.0 * GI50 of the reference compound) | < 1000 | 1.84 | 3.7 | 6.82
CNC(=O)c1ccc(NCC#Cc2nc3c(NC4CC[C@@H](N5CC6(CCC6)C5)C[C@@H]4F)cccn3c2CC(F)(F)F)c(OC)c1 (some centres unmarked) [Compound 42] |  | B (B: EC50 of the reference compound<EC50 of the compound≤3.0*EC50 of the reference compound) | < 1000 | B (B: GI50 of the reference compound < GI50 of the compound ≤ 3.0 * GI50 of the reference compound) |  | 1.72 | 2.16 | 3.72
CNC(=O)c1ccc(NCC#Cc2nc3c(NC4CCC(N5CCOCC5)C[C@@H]4F)cccn3c2CC(F)(F)F)c(OC)c1 (some centres unmarked) [Compound 44] | < 100 | B (B: EC50 of the reference compound<EC50 of the compound≤3.0*EC50 of the reference compound) |  | C (C: GI50 of the compound ≥ 3 * GI50 of the reference compound) |  | 1.79 | 3.54 | 6.34
CNC(=O)c1ccc(NCC#Cc2nc3c(NC4CCN(C)CC4)nccn3c2CC(F)(F)F)c(OC)c1 [Compound 1] | 500 to 1000 | C (C: EC50 of the compound≥3*EC50 of the reference compound) | 1000 to 5000 | C (C: GI50 of the compound ≥ 3 * GI50 of the reference compound) | 1000 to 5000 |  |  | 
